Results reported in ChEMBL document CHEMBL1201862, “PubChem BioAssay data set” (2004).
Calls of active or inactive are those of the source.

What was measured:
[1] = biological target: Peroxisome proliferator-activated receptor gamma/Nuclear receptor coactivator 3 (Homo sapiens, UniProt P37231); type: functional;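 also: agonist potency for raising coactivator recruitment to the receptor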
[2] = biological target: Peroxisome proliferator-activated receptor gamma/Nuclear receptor coactivator 1 (Homo sapiens, UniProt P37231); type: functional;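 also: agonist potency as compounds enhance coactivator SRC-1 recruitment to PPARgamma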
[3] = biological target: Peroxisome proliferator-activated receptor gamma/Nuclear receptor coactivator 2 (Homo sapiens, UniProt P37231); type: functional;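 also: agonist potency for raising coactivator recruitment to the receptor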
[4] = biological target: T1, Estrogen receptor (Homo sapiens, UniProt P03372);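 also: potency for inhibiting coactivator peptide recruitment to the receptor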
T1 sequence (P03372 whole entry): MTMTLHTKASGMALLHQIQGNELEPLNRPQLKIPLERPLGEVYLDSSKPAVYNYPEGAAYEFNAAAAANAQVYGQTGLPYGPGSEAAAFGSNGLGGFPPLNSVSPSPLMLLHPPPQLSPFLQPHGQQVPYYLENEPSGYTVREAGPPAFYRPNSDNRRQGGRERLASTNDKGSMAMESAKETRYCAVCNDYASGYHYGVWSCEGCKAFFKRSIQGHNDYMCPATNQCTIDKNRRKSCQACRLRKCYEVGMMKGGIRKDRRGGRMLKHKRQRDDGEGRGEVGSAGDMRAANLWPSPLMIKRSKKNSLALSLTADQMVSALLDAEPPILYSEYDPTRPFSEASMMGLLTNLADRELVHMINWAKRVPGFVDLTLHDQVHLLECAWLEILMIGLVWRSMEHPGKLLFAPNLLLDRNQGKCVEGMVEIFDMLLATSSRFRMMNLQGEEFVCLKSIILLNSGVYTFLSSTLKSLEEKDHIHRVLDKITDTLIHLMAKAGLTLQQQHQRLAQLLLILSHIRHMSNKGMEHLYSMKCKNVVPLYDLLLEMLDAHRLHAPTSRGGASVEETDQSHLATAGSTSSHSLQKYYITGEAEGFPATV

[5] = biological target: T2, Estrogen receptor beta (Homo sapiens, UniProt Q92731); assay: ERβ–SRC-3 coactivator interaction inhibitors, confirmation, orthogonal assay, biochemical, ELISA, streptavidin-HRP readout (AID 1060)
[6] = biological target: T3, Eukaryotic translation initiation factor 2-alpha kinase 3 (Homo sapiens, UniProt Q9NZJ5); assay: Dose response cell-based high-throughput screening assay to measure PERK inhibition. [Related pubchem assays: 1416 ]; type: functional
T3 sequence (Q9NZJ5 whole entry): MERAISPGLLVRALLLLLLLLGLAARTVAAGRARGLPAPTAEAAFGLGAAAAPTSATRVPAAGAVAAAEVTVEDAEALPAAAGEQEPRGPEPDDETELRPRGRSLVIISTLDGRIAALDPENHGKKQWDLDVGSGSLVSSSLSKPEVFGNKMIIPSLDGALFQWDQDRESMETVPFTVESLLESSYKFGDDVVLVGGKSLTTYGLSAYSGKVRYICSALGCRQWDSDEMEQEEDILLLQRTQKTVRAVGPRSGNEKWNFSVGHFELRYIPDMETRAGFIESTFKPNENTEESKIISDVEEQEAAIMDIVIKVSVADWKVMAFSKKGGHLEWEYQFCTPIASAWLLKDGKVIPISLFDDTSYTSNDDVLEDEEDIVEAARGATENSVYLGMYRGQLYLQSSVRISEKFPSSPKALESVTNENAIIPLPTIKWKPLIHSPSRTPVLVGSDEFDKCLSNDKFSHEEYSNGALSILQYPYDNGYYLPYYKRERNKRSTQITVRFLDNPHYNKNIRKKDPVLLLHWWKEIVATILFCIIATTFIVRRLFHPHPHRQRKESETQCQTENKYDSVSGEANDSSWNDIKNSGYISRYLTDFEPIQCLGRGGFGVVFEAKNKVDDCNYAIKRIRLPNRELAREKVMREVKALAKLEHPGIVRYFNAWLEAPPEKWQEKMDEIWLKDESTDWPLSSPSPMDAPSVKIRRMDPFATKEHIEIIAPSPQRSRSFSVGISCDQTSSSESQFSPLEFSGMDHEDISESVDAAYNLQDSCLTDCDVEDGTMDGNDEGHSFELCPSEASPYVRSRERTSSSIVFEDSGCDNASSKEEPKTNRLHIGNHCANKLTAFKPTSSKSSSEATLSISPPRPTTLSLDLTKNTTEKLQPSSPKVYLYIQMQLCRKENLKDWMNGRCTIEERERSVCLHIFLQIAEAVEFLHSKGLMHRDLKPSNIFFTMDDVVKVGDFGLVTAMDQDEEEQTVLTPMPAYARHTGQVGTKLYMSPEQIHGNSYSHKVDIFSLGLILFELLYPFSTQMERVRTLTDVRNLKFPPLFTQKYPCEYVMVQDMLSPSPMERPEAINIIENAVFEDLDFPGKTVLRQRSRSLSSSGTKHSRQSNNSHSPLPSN

[7] = biological target: T3, Eukaryotic translation initiation factor 2-alpha kinase 3; assay: Counterscreen assay for PERK inhibitors: Dose response cell-based high throughput screening assay to measure inhibition of PERK at 6 hours. [Related pubchem assays: 1522, 1416 ]; type: functional
[8] = biological target: DNA dC->dU-editing enzyme APOBEC-3G (Homo sapiens, UniProt Q9HC16); assay: Dose Response confirmation of small molecule APOBEC3G DNA Deaminase Inhibitors via a fluorescence-based single-stranded DNA deaminase assay. [Related pubchem assays (depositor defined):AID493012, AID493028]; type: functional
[9] = biological target: DNA dC->dU-editing enzyme APOBEC-3A (Homo sapiens, UniProt P31941); assay: APOBEC3A DNA deaminase inhibitors, dose response, biochemical (AID 504722); type: functional
[10] = biological target: T4, Mannose-6-phosphate isomerase (Homo sapiens, UniProt P34949); assay: human PMI inhibitors, high substrate, primary screen, biochemical, fluorescence intensity, high mannose 6-phosphate (AID 1220)
T4 sequence (P34949 whole entry): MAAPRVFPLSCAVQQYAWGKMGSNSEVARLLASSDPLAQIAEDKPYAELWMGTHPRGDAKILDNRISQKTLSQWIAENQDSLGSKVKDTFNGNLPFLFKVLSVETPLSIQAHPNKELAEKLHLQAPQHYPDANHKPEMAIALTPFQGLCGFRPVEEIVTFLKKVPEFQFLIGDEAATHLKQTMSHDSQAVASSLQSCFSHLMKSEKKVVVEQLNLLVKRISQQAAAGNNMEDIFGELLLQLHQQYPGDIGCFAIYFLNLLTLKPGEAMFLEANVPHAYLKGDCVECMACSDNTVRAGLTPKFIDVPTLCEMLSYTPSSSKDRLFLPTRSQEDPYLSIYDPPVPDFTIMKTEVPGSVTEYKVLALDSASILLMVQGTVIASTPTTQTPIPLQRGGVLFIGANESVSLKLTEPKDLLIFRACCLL

[11] = biological target: T4, Mannose-6-phosphate isomerase; assay: inhibitors of human PMI, primary screen, biochemical, fluorescence intensity, coupled assay (AID 1209)
[12] = growth suppression of PTEN-null colon cells, dose response, cell-based, HCT116 PTEN knockout (AID 1047); type: functional;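 also: HCT116 colon tumor cells with PTEN knocked out; cells exposed to compound for 60 hours before readout; potency for loss of cell viability measured by luminescence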
[13] = system: Streptococcus; assay: Group A Streptococcus viability loss, dose response, counter-screen for streptokinase expression inhibitor project, luminescence, BacTiterGlo (AID 1915); type: functional, organism-based;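 also: potency for reduction of bacterial viability or growth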
[14] = inhibitors of intracellular T. cruzi replication, confirmation, NIH3T3 host cells, beta-gal luminescence (AID 2044); type: functional, cell-based;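 also: intracellular parasites grown in NIH/3T3 mouse fibroblasts as host cells; luminescent beta-galactosidase reporter signal from transgenic T. cruzi replicating inside host cells; inhibitors lower the luminescence signal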
[15] = cytotoxicity toward NIH3T3 fibroblasts, dose response, counter-screen, cell-based, ATP luminescence, mouse fibroblasts (AID 2010); type: functional;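 also: cells exposed to compound for about 90 hours before reading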
[16] = system: Vero; assay: cells; type: functional; settings: Chlorocebus sabaeus
[17] = system: Streptococcus sp. 'group A'; assay: growth inhibition of control SK(-) GAS strain, dose response, counter-screen for streptokinase expression inhibitor project, luminescence, kanamycin, BacTiterGlo, confirmation (AID 1900); type: functional, organism-based
[18] = biological target: Lysosomal acid glucosylceramidase (Homo sapiens, UniProt P04062); assay: Dose response cell-based high throughput screening assay to identify enhancers of beta-glucosidase activity. [Related pubchem assays: 784 ]; type: functional
[19] = biological target: T5, Streptokinase A (Streptococcus pyogenes serotype M1, UniProt P10520); assay: S. pyogenes streptokinase expression inhibitors, potency, dose response, plasminogen activation absorbance, OD405 (AID 1914); type: functional, Streptococcus pyogenes M1 GAS;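 also: secreted streptokinase activity via plasminogen activation per viability signal from cell pellet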
T5 sequence (P10520 whole entry): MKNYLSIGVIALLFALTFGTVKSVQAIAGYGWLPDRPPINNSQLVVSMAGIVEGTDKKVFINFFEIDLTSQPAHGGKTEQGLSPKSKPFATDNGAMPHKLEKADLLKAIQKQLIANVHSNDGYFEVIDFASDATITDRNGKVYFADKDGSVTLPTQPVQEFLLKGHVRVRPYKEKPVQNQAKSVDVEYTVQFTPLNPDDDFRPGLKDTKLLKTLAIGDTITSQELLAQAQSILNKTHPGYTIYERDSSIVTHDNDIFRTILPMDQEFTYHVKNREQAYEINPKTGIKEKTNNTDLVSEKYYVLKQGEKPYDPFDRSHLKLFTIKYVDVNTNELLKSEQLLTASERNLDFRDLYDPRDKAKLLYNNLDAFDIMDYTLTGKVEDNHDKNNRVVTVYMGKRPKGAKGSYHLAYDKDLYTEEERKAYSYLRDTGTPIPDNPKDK

[20] = growth suppression of beta-catenin-knockout colon cells, dose response, cell-based, HCT116, human colon tumor (AID 1045); type: functional;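 also: HCT116 colon tumor cells with beta catenin knocked out; cells exposed to compound for 60 hours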
[21] = biological target: Protein-tyrosine kinase 2-beta (Homo sapiens, UniProt Q14289);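 also: potency of inhibitors of PYK2 kinase phosphorylation of poly-GT substrate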
[22] = biological target: T2, Estrogen receptor beta
[23] = biological target: T6, Bcl-2-like protein 10 (Homo sapiens, UniProt Q9HD36); assay: displacers of TR3 peptide from Bcl-B, primary screen, selectivity assay for Bfl-1 inhibitor project, biochemical, fluorescence polarization, FITC-TR3 peptide (AID 748);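 also: fluorescence polarization from a fluorescein-labelled TR3 peptide binding purified Bcl-B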
T6 sequence (Q9HD36 whole entry): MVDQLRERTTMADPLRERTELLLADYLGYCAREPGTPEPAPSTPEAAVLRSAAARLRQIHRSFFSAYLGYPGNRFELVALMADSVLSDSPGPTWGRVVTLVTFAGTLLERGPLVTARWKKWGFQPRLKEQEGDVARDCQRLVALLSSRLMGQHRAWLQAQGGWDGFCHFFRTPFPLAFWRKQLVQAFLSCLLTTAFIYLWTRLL

[24] = biological target: T7, Aryl hydrocarbon receptor (Homo sapiens, UniProt P35869); assay: Luminescence-based cell-based high throughput dose response assay for activators of the Aryl Hydrocarbon Receptor (AHR). [Related pubchem assays: 2796 (Primary screen (AHR activators in singlicate)), 2845 (Confirmation screen (AHR activators in triplicate)), 434939 (Counterscreen (PXR activators in triplicate)), 2804 (Summary (AHR activators))]; type: ADME
T7 sequence (P35869 whole entry): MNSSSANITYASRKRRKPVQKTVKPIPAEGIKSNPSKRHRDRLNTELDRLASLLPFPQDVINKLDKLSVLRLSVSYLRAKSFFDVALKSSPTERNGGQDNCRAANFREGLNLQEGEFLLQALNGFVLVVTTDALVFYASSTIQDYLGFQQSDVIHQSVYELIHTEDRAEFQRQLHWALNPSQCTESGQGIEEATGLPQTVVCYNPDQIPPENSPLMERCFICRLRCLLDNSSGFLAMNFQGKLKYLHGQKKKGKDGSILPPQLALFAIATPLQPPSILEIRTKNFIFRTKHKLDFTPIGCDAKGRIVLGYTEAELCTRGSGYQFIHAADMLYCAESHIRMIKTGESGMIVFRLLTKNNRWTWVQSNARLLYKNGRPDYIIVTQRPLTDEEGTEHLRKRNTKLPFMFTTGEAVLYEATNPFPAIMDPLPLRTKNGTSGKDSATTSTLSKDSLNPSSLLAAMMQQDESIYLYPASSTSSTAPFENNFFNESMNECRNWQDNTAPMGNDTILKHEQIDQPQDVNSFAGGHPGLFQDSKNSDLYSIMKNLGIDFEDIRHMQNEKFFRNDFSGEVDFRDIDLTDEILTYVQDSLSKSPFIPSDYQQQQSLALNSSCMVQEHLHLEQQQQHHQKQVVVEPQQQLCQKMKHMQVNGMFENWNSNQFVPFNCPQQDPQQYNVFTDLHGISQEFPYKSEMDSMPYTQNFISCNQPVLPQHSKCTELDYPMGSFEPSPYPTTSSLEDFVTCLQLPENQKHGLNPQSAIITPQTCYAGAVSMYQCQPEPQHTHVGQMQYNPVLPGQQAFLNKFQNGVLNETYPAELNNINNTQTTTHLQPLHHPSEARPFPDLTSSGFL

T2 sequence (Q92731 whole entry): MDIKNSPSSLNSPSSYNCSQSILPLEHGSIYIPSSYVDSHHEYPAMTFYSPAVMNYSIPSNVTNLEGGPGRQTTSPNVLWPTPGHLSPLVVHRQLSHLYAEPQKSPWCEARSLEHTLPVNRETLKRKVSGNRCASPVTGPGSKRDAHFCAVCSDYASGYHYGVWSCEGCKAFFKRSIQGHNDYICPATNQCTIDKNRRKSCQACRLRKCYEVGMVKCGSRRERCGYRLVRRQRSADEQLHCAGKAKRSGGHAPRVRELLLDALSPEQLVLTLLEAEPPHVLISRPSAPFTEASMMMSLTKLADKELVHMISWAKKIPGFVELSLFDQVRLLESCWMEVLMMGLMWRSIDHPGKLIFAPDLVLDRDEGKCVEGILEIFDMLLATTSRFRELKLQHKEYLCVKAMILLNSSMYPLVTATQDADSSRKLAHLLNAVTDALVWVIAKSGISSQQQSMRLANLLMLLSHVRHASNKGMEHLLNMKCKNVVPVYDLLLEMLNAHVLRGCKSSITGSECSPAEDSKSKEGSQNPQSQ
Sequence of Peroxisome proliferator-activated receptor gamma/Nuclear receptor coactivator 2 (P37231 whole entry): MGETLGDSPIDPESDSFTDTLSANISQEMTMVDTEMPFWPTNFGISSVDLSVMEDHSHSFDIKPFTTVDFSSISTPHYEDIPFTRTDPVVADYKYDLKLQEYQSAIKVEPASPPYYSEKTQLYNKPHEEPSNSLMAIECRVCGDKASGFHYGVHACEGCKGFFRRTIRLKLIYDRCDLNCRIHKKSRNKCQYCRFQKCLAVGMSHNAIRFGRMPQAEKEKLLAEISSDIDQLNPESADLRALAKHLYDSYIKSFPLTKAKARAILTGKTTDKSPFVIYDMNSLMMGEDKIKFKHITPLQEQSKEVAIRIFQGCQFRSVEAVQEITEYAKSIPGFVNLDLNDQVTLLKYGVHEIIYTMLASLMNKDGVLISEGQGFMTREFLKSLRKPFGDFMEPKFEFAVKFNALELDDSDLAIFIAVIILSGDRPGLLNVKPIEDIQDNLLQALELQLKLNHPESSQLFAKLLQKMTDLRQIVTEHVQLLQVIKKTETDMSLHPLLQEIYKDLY
Sequence of Peroxisome proliferator-activated receptor gamma/Nuclear receptor coactivator 2 (Q15596 whole entry, further chain): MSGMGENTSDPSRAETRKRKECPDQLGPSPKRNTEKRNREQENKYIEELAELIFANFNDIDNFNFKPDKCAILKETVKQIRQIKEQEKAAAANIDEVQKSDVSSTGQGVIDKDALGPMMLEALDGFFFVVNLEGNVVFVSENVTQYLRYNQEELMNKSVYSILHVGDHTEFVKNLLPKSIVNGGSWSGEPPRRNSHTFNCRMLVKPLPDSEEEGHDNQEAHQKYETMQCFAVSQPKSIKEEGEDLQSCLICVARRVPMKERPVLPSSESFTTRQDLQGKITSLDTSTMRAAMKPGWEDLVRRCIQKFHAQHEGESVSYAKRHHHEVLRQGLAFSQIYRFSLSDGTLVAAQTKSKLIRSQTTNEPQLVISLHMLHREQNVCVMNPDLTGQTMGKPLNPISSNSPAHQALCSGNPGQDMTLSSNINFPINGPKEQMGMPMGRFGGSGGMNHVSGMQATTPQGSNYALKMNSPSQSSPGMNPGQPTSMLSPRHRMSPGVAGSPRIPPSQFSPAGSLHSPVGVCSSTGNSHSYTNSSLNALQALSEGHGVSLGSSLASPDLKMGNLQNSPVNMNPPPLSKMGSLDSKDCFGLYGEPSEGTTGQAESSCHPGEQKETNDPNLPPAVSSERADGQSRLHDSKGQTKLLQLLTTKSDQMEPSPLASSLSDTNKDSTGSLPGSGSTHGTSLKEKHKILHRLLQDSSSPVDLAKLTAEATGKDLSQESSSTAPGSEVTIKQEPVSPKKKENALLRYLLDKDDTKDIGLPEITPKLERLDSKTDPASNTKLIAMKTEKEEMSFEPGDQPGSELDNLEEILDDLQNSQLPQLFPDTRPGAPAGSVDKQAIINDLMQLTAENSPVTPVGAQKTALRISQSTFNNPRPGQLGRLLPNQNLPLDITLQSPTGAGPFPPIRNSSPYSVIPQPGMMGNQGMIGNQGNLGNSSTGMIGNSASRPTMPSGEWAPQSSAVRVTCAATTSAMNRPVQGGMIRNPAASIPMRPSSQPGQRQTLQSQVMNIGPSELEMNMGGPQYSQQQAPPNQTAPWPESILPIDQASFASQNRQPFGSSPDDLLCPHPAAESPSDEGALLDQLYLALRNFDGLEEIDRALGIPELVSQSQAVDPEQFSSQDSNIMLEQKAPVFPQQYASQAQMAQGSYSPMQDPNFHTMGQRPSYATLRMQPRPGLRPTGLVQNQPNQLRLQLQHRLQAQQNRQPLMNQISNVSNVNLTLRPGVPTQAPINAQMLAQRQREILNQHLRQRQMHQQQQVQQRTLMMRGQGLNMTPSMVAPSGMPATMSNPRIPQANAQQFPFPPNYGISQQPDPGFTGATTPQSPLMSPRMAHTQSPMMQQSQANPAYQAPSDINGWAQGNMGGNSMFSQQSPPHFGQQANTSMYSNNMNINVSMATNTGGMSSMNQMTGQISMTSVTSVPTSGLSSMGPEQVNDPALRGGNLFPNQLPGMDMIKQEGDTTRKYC
Sequence of Peroxisome proliferator-activated receptor gamma/Nuclear receptor coactivator 3 (P37231 whole entry): as the sequence (P37231 whole entry) above
Sequence of Peroxisome proliferator-activated receptor gamma/Nuclear receptor coactivator 3 (Q9Y6Q9 whole entry, further chain): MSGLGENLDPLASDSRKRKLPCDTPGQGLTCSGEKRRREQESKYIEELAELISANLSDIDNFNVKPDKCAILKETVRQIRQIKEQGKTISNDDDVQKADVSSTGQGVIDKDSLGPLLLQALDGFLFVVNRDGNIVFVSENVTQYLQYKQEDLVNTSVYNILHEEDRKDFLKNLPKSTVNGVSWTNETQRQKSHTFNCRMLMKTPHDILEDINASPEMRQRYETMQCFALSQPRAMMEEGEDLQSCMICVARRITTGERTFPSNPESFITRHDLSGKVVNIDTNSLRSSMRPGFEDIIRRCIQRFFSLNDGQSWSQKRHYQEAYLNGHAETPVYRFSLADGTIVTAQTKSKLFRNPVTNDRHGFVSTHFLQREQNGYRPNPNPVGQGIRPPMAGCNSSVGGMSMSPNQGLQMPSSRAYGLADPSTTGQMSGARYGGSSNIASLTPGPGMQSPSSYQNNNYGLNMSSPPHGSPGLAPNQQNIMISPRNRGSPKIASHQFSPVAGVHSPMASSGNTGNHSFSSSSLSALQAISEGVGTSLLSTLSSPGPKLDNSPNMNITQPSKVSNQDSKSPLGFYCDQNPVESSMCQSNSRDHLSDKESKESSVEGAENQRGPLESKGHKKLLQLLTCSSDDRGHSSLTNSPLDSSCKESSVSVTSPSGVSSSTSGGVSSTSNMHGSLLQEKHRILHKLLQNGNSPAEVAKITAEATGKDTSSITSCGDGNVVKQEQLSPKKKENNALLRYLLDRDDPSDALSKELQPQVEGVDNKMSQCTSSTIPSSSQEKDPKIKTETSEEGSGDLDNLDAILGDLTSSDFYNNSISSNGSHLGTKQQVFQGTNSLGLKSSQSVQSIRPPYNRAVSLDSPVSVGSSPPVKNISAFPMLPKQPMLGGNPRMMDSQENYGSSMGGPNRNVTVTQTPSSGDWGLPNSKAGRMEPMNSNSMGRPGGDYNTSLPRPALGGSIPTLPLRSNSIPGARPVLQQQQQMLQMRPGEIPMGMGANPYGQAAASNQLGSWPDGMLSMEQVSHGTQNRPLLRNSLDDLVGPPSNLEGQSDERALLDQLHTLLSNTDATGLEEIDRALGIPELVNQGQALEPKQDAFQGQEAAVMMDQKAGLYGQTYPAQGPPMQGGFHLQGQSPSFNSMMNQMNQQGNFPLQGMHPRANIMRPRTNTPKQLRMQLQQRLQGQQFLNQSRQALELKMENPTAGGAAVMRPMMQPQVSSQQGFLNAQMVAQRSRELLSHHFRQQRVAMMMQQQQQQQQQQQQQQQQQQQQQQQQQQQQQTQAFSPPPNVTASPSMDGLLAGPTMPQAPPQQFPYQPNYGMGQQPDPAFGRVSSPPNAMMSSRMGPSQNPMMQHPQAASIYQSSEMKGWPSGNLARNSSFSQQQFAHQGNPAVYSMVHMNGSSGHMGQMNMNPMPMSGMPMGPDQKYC
Sequence of DNA dC->dU-editing enzyme APOBEC-3A (P31941 whole entry): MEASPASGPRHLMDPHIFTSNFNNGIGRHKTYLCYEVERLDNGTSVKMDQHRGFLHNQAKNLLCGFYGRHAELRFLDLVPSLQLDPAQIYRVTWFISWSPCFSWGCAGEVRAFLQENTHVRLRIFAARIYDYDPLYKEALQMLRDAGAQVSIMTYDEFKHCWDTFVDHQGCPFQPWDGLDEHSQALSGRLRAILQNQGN
Sequence of DNA dC->dU-editing enzyme APOBEC-3G (Q9HC16 whole entry): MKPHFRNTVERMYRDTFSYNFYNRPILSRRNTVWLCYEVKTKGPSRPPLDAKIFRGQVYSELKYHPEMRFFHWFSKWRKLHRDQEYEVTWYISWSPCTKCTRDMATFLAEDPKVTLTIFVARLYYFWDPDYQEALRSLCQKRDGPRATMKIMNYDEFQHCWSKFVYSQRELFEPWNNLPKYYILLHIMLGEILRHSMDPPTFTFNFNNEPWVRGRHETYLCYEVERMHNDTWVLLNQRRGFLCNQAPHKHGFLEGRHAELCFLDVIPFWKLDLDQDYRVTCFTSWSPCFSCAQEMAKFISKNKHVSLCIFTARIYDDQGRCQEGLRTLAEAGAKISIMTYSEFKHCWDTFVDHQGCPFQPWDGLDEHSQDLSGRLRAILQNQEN

COc1ccccc1C(=O)Nc1ccccn1
EC50 [1]: > 79.4 µM (not active)
EC50 [2]: > 79.4 µM (not active)
EC50 [3]: > 79.4 µM (not active)

CC1CCN(S(=O)(=O)c2ccc(C(=O)Nc3sccc3C(N)=O)cc2)CC1
EC50 [1]: 79.2 µM (not active)
EC50 [2]: 71.2 µM (not active)
EC50 [3]: 145 µM (not active)

CCC1(C)NC(=O)N(CC(=O)Nc2sc3c(c2C(N)=O)CCC3)C1=O (stereo not given)
IC50 [4]: 18.2 µM (active)
IC50 [5]: 0.0325 µM (not active)

CCOC(=O)c1c(C)noc1-c1ccc(Br)o1
EC50 [6]: > 55.7 µM (not active)
EC50 [7]: > 55.7 µM (not active)

CC1(C)Cc2c(sc3ncn4c(S)nnc4c23)CO1
IC50 [8]: 3.8 µM (active)
IC50 [9]: > 100 µM (inactive)
IC50 [10]: > 50 µM (not active)
IC50 [11]: > 50 µM (not active)

CC(C)Cn1c(N)c(C(=O)NCc2cccs2)c2nc3ccccc3nc21
EC50 [12]: 36 µM (active)
EC50 [13]: 7.88 µM (active)
EC50 [14]: 2.17 µM (active)
EC50 [15]: > 60 µM (not active)
CC50 [16]: 14 µM (active)
EC50 [17]: 3.56 µM (active)
EC50 [18]: 2.49 µM (active)
EC50 [19]: 30.2 µM (active)
EC50 [20]: 47 µM (active)

C=CCn1c(SCC(=O)N2CCCC2)nc2scc(-c3cccs3)c2c1=O
IC50 [21]: > 69.5 µM (not active)

O=C(O)c1ccc(C[S+]([O-])c2cccc(C(F)(F)F)c2)o1 (stereo not given)
EC50 [6]: > 55.7 µM (not active)
EC50 [7]: > 55.7 µM (not active)

COc1ccc(C(N)CCc2ccc(C)o2)cc1 (stereo not given)
IC50 [22]: 6.8 µM (active)
IC50 [23]: > 50 µM (inactive)
IC50 [5]: 93.7 µM (not active)

Cc1cnc(NC(=O)c2c(Cl)cnn2C)s1
EC50 [24]: 5.87 µM (active)
